Test results taken from US7473700B2, “1,2,4-triazole derivatives, processes for the preparation thereof, and pharmaceutical compositions containing the same” (CJ Corporation, priority 2002, dated 2009).

Legend:
[1] = biological target: T1, COX-1 (Homo sapiens, UniProt P23219); test: Assay for the COX-1 inhibitory activity using U-937 (PGE2 inhibition); format: cell-based; details: 1 μM test compound; U-937 human lymphoma cells; PGE2 after arachidonic acid; read-out: Cyclooxygenase (COX) Inhibition (%) COX-1 (1 μM)
T1 construct: host or cells: U-937 human lymphoma cells
Procedure: The collected cells were diluted with HBSS (×1, Hank's balanced salt solution) to a concentration of 1×10^6 cells/ml. 1 ml of the dilute cell solution was placed into each well of 12-well plates. 5 μl of 1 μM solution of a test compound in DMSO and 5 μl of DMSO as a control were added to the wells. The wells were incubated in CO2 incubator at 37° C. for 15 minutes. Separately, 10 mM stock solution of arachidonic acid in ethanol was diluted ten times in ethanol to prepare 1 mM solution of arachidonic acid. Arachidonic acid acts as a substrate. 10 μl of the 1 mM solution of arachidonic acid was added to each well and incubated at CO2 incubator at 37° C. for 30 minutes. The cell solution of each well was placed in a centrifuge test tube and centrifuged at 10,000 rpm at 4° C. for 5 minutes. The concentration of PGE2 in the collected cells and the supernatant was quantified by means of a monoclonal kit (Cayman Chemicals). The percentages of PGE2 inhibition in a group of the test compound-treated cells in relation to a group of the DMSO-treated cells were calculated. Based on the calculated values, the COX-1 inhibitory activities were evaluated.
(§1) The percentages of the COX inhibition were calculated according to the following equation: % Inhibition=(concentration of PGE2 in test compound-untreated sample−concentration of PGE2 in test compound-treated sample)/(concentration of PGE2 in test compound-untreated sample)×100

[2] = biological target: T2, COX-2 (Mus musculus, UniProt Q05769); test: Assay for the COX-2 inhibitory activity using RAW 264.7 cell line (PGE2 inhibition); format: cell-based; details: RAW264.7, 10 nM test compound, RAW 264.7 cells, interferon γ and LPS, 18 hours, read-out: Cyclooxygenase (COX) Inhibition (%) COX-2 (10 nM)
T2 construct: host or cells: RAW 264.7 cells, aspirin-pretreated, then induced with interferon gamma and LPS
T2 sequence (Q05769 18-604): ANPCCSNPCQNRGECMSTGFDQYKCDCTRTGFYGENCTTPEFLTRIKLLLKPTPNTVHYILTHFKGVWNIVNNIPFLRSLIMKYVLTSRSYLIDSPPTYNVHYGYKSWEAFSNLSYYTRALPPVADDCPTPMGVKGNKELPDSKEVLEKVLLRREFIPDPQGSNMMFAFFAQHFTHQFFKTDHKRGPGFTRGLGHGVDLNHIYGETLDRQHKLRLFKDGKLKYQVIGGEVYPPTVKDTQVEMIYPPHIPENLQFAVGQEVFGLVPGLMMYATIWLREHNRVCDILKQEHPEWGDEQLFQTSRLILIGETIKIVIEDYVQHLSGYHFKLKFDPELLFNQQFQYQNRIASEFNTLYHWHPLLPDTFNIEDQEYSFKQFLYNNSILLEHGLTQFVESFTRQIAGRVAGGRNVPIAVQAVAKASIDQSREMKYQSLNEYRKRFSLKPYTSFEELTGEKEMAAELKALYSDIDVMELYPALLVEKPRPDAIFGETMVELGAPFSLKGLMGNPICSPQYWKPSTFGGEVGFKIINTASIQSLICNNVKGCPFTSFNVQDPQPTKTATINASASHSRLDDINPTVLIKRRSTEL
Procedure: Each well was treated with 250 μM of aspirin and incubated at 37° C. for 2 hours. After the culture media were replaced with new culture media, the new culture media were treated with a test compound (10 nM) and incubated for 30 minutes. Then, each well was treated with interferon γ (100 units/ml) and lipopolysaccharide (LPS, 100 ng/ml) and incubated for 18 hours. The culture media were transferred to other test tubes. The concentration of PGE2 was quantified by means of the EIA kit (Cayman Chemicals).
as §1

T1 sequence (P23219 24-599): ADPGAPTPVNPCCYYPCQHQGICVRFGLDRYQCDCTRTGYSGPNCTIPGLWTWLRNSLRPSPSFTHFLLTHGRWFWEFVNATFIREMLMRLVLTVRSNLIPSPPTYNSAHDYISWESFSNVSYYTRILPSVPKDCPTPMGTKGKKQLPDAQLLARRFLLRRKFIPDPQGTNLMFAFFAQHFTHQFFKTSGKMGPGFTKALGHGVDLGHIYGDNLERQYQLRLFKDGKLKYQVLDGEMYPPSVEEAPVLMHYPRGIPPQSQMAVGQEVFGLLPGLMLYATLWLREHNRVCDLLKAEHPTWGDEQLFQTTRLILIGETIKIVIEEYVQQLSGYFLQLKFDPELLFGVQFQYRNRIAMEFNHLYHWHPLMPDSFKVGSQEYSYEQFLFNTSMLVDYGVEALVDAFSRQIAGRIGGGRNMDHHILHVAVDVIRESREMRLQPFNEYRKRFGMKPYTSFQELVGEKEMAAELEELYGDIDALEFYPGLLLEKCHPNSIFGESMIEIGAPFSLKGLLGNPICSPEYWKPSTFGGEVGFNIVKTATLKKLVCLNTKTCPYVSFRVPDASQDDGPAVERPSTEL

inhibition at 1 µM [1] [%]	inhibition at 0.01 µM [2] [%]	Structure (SMILES)
11.1	36.4	CS(=O)(=O)c1ccc(-n2nc(O)nc2-c2ccccc2)cc1 [Example 22, 1-(4-methanesulfonylphenyl)-5-phenyl-1H-1,2,4-triazole-3-ol]
37.4	12.3	NS(=O)(=O)c1ccc(-n2nc(O)nc2-c2ccc(Br)cc2)cc1 [Example 19, 4-[3-hydroxy-5-(4-bromophenyl)-1,2,4-triazole-1-yl]-benzenesulfonamide]
26	25.4	CCOc1nc(-c2ccccc2)n(-c2ccc(S(C)(=O)=O)cc2)n1 [Example 62, 1-(4-methanesulfonylphenyl)-3-ethoxy-5-phenyl-1H-1,2,4-triazole]
21.4	23.4	NS(=O)(=O)c1ccc(-n2nc(OCc3ccccc3)nc2-c2ccccc2)cc1 [Example 51, 4-(3-benzyloxy-5-phenyl-1,2,4-triazole-1-yl)-benzenesulfonamide]
23.4	13.3	C#CCSc1nc(-c2ccccc2)n(-c2ccc(S(N)(=O)=O)cc2)n1 [Example 45, 4-(3-prop-2-ynylthio-5-phenyl-1,2,4-triazole-1-yl)-benzenesulfonamide]
21.4	26.6	NS(=O)(=O)c1ccc(-n2nc(OCCCl)nc2-c2ccccc2)cc1 [Example 57, 4-[3-(2-chloroethoxy)-5-phenyl-1,2,4-triazole-1-yl]-benzenesulfonamide]
23.4	23.4	COc1nc(-c2ccccc2)n(-c2ccc(S(C)(=O)=O)cc2)n1 [Example 60, 1-(4-methanesulfonylphenyl)-3-methoxy-5-phenyl-1H-1,2,4-triazole]
25.4	10.6	CC(C)Oc1nc(-c2ccccc2)n(-c2ccc(S(N)(=O)=O)cc2)n1 [Example 47, 4-(3-isopropoxy-5-phenyl-1,2,4-triazole-1-yl)-benzenesulfonamide]
23.2	27.8	COc1nc(-c2ccccc2)n(-c2ccc(S(N)(=O)=O)cc2)n1 [Example 25, 4-(3-methoxy-5-phenyl-1,2,4-triazole-1-yl)-benzenesulfonamide]
23.4	33.1	CC(C)Oc1nc(-c2ccccc2)n(-c2ccc(S(C)(=O)=O)cc2)n1 [Example 64, 1-(4-methanesulfonylphenyl)-3-isopropoxy-5-phenyl-1H-1,2,4-triazole]
16.4	31.2	COc1ccc(-c2nc(OC)nn2-c2ccc(S(N)(=O)=O)cc2)cc1 [Example 24, 4-[3-methoxy-5-(4-methoxyphenyl)-1,2,4-triazole-1-yl]-benzenesulfonamide]
34.3	33.1	C=CCOc1nc(-c2ccc(OC)cc2)n(-c2ccc(S(N)(=O)=O)cc2)n1 [Example 52, 4-[3-allyloxy-5-(4-methoxyphenyl)-1,2,4-triazole-1-yl]-benzenesulfonamide]
11.2	11.5	COc1nc(-c2ccc(Br)cc2)n(-c2ccc(S(N)(=O)=O)cc2)n1 [Example 27, 4-[3-methoxy-5-(4-bromophenyl)-1,2,4-triazole-1-yl]-benzenesulfonamide]
20.4	16.2	C=CCOc1nc(-c2ccccc2)n(-c2ccc(S(N)(=O)=O)cc2)n1 [Example 53, 4-(3-allyloxy-5-phenyl-1,2,4-triazole-1-yl)-benzenesulfonamide]
34.2	12.2	COc1ccc(-c2nc(OC(C)C)nn2-c2ccc(S(N)(=O)=O)cc2)cc1 [Example 46, 4-[3-isopropoxy-5-(4-methoxyphenyl)-1,2,4-triazole-1-yl]-benzenesulfonamide]
16.2	16.2	NS(=O)(=O)c1ccc(-n2nc(OC3CCCCC3)nc2-c2ccc(F)cc2)cc1 [Example 40, 4-[3-cyclohexyloxy-5-(4-fluorophenyl)-1,2,4-triazole-1-yl]-benzenesulfonamide]
13.2	35.1	COc1ccc(-c2nc(O)nn2-c2ccc(S(C)(=O)=O)cc2)cc1 [Example 23, 1-(4-methanesulfonylphenyl)-5-(4-methoxyphenyl)-1H-1,2,4-triazole-3-ol]
27.7	15.5	COc1ccc(-c2nc(OCC#N)nn2-c2ccc(S(N)(=O)=O)cc2)cc1 [Example 41, 4-[3-cyanomethoxy-5-(4-methoxyphenyl)-1,2,4-triazole-1-yl]-benzenesulfonamide]
33.1	16.2	COc1ccc(-c2nc(OCC(F)(F)F)nn2-c2ccc(S(N)(=O)=O)cc2)cc1 [Example 55, 4-[3-(2,2,2-trifluoroethoxy)-5-(4-methoxyphenyl)-1,2,4-triazole-1-yl]-benzenesulfonamide]
17.4	33.1	NS(=O)(=O)c1ccc(-n2nc(OC3CCCC3)nc2-c2ccc(F)cc2)cc1 [Example 38, 4-[3-cyclopentyloxy-5-(4-fluorophenyl)-1,2,4-triazole-1-yl]-benzenesulfonamide]
